Reference: article PMC10945555, “Improving Activity of New Arylurea Agents against Multidrug-Resistant and Biofilm-Producing Staphylococcus epidermidis” (ACS Medicinal Chemistry Letters, 2024)

Tested on: Staphylococcus epidermidis clinical strain no. 23
Assay: Cell membrane potential, DiOC2 flow cytometry
Format: cell-based
Conditions: 4 × MIC, within 15 min; MSSE, S. epidermidis clinical strain no. 23, S. aureus Newman
Text: 23, and S. aureus Newman (reference strain without known antibiotic resistance determinants). Bacterial strains were stained with 3,3′-diethyloxacarbocyanine iodide (DiOC2) and then treated with the tested compound 25, with carbonyl cyanide 3-chlorophenylhydrazone (CCCP) used as a positive control. Daptomycin was used as a reference compound that causes depolarization of bacterial cell membranes.[22]
(reduction of navy blue resazurin to pink resorufin in the presence of metabolically active cells) compared to the negative (sterile medium without bacteria and compounds) and positive control (medium with bacteria).9 The minimal biofilm eradication concentration value was analyzed using a high throughput screening the MBEC Assay® Kit (Innovotech, Canada), formerly the Calgary Biofilm Device, according to the manufacturer's insert.10 […]
determining MBC (Minimal Bactericidal Concentration) values. […] Then, the value of the MBC/MIC ratio was calculated to assess its bactericidal or bacteriostatic activity. […]
using the BacLight™ Bacterial Membrane Potential Kit (Molecular Probes, Invitrogen, Carlsbad, CA, USA).15 Analysis of the cells was tested in an LSR II flow cytometer (BD Biosciences Immunocytometry Systems, San Jose, CA, USA) equipped with blue, red and violet lasers, using 488 nm excitation for green (530/30 BP filter, 505 LP) and red (610/20 BP, 600 LP) fluorescence. […]

O=C(Nc1cccc(Cl)c1)NC1CCN(CCC(Oc2ccc(C(F)(F)F)cc2)c2cccs2)CC1 (stereo not shown) [Compound 25]
membrane depolarization: depolarization in nearly all bacterial cells
